Structures are written as SMILES.

The source of these data is patent US9682976B2, “Protein kinase C inhibitors and uses thereof” (Rigel Pharmaceuticals, Inc., priority 2012, dated 2017).

The subject of the assay is PKC mediated IL-2 production. The assay is described as follows: IL-2 ELISA, human primary T cell, anti CD3+CD28+. Type of assay: cell-based. The conditions noted are these: human primary T cells stimulated with αCD3 and αCD28, 24 hours. The method in brief: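 Human peripheral blood T cells, pre-expanded with αCD3/αCD28 and IL-2 and then washed free of IL-2, were pre-incubated with compound for 1 h at 37° C. They were then stimulated on plates coated with […] αCD3 and 5 μg/ml αCD28, or with 0.5 ng/ml PMA plus 0.1 uM ionomycin in the counter assay. IL-2 in supernatants was measured by ELISA after 24 h.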
(In general: An ELISA detects its analyte on a solid surface through an enzyme-linked reagent.)

Usually EC50 stands for the concentration at which the effect is half-maximal. A lower EC50 goes with higher potency in that assay. Turning to `CC1(C)C[C@H](Nc2nc(Nc3ccc(OCCO)c(Cl)c3)ncc2F)C[C@@H]2CCCN21` [Compound 133, 2-(2-chloro-4-((4-(((7R,8aS)-5,5-dimethyloctahydroindolizin-7-yl)amino)-5-fluoropyrimidin-2-yl)amino)phenoxy)ethan-1-ol], the EC50 (Homo sapiens, T-cell, 24 h) is 100 to 500 nM.

As to `COc1ccc(Nc2ncc(F)c(N[C@@H]3C[C@@H]4CCCN4C(C)(C)C3)n2)cc1-n1nnnc1C` [Compound 140, N4-((7R,8aS)-5,5-dimethyloctahydroindolizin-7-yl)-5-fluoro-N2-(4-methoxy-3-(5-methyl-1H-tetrazol-1-yl)phenyl)pyrimidine-2,4-diamine], the EC50 (Homo sapiens, T-cell, 24 h) was less than 100 nM.

Regarding `CC1(C)CC[C@H]2C[C@@H](Nc3nc(Nc4ccc(N5CC(O)C5)c(OC(F)F)c4)ncc3F)CCN21` [Compound 308, 1-(2-(Difluoromethoxy)-4-((4-(((7S,8aS)-3,3-dimethyloctahydroindolizin-7-yl)amino)-5-fluoropyrimidin-2-yl)amino)phenyl)azetidin-3-ol], for the setting “Homo sapiens, T-cell, 24 h”, the EC50 lay in the range of 500 to 1000 nM.

Under “Homo sapiens, T-cell, 24 h”, `Cn1nnn(-c2cc(Nc3ncc(F)c(N[C@H]4C[C@@H]5CCC(=O)N5C(C)(C)C4)n3)c(F)cc2C2CC2)c1=O` (racemic) [Compound 32, 1-(5-(5-fluoro-4-(hexahydro-5,5-dimethylindolizin-3(5H)-one-7-ylamino)pyrimidin-2-ylamino)-2-cyclopropyl-4-fluorophenyl)-4-methyl-1H-tetrazol-5(4H)-one] yielded an EC50 of 1000 to 10000 nM.

`CC1(C)C[C@H](Nc2nc(Nc3ccc(NCC(CCl)C(N)=O)c(C(F)(F)F)c3)ncc2F)C[C@@H]2CCCN21` (stereo partly drawn) [Compound 325, 1-(4-(4-((7R,8aS)-octahydro-5,5-dimethylindolizin-7-ylamino)-5-fluoropyrimidin-2-ylamino)-24(2-trifluoromethylphenylamino)methyl)-3-chloropropanamide] displayed an EC50 (Homo sapiens, T-cell, 24 h) of 500 to 1000 nM.

In turn, `Cc1nnnn1-c1cc(Nc2ncc(F)c(N[C@@H]3C[C@@H]4CCCN4C(C)(C)C3)n2)ccc1F` [Compound 141, N4-((7R,8aS)-5,5-dimethyloctahydroindolizin-7-yl)-5-fluoro-N2-(4-fluoro-3-(5-methyl-1H-tetrazol-1-yl)phenyl)pyrimidine-2,4-diamine] displayed an EC50 (Homo sapiens, T-cell, 24 h) of less than 100 nM.

Compound `COCCOc1ccc(Nc2ncc(F)c(N[C@@H]3C[C@@H]4CCCN4C(C)(C)C3)n2)cc1C#N` [Compound 172, 5-((4-(((7R,8aS)-5,5-dimethyloctahydroindolizin-7-yl)amino)-5-fluoropyrimidin-2-yl)amino)-2-(2-methoxyethoxy)benzonitrile] had an EC50 (Homo sapiens, T-cell, 24 h) of 100 to 500 nM.

`CC1(C)C[C@H](Nc2nc(Nc3ccc(OCC4(CO)COC4)c(-n4cnnn4)c3)ncc2F)C[C@@H]2CCCN21` [Compound 204, (3-((4-((4-(((7R,8aS)-5,5-dimethyloctahydroindolizin-7-yl)amino)-5-fluoropyrimidin-2-yl)amino)-2-(1H-tetrazol-1-yl)phenoxy)methyl)oxetan-3-yl)methanol] showed an EC50 (Homo sapiens, T-cell, 24 h) of 500 to 1000 nM.

`CC1(C)C[C@H](Nc2nc(Nc3ccc(N4CC5(COC5)C4)c(C#N)c3)ncc2F)C[C@@H]2CCCN21` [Compound 101, 5-(4-((7R,8aS)-5,5-dimethyloctahydroindolizin-7-ylamino)-5-fluoropyrimidin-2-ylamino)-2-(2-oxa-6-azaspiro[3.3]heptan-6-yl)benzonitrile]: the EC50 (Homo sapiens, T-cell, 24 h) fell in the range of 100 to 500 nM.

Regarding `CC(=O)O[C@H]1[C@H](OC(C)=O)C(Oc2ccc(Nc3ncc(F)c(N[C@@H]4C[C@@H]5CCCN5C(C)(C)C4)n3)cc2C#N)OC[C@H]1OC(C)=O` (stereo partly drawn) [Compound 197, (3S,4R,5R)-2-(2-cyano-4-((4-(((7R,8aS)-5,5-dimethyloctahydroindolizin-7-yl)amino)-5-fluoropyrimidin-2-yl)amino)phenoxy)tetrahydro-2H-pyran-3,4,5-triyl triacetate], the EC50 (Homo sapiens, T-cell, 24 h) fell in the range of 100 to 500 nM.

The compound `CC1(C)C[C@H](Nc2nc(Nc3cccc(-n4nnnc4SC4COC4)c3)ncc2F)C[C@@H]2CCCN21` [Compound 262, 5-fluoro-N4-((7R,8aS)-octahydro-5,5-dimethylindolizin-7-yl)-N2-(3-(5-(oxetan-3-ylthio)-1H-tetrazol-1-yl)phenyl)pyrimidine-2,4-diamine] returned an EC50 (Homo sapiens, T-cell, 24 h) of less than 100 nM.

In the case of `CC1(C)C[C@H](Nc2nc(Nc3ccc(OCCO)c(F)c3)ncc2F)C[C@@H]2CCCN21` [Compound 130, 2-(4-((4-(((7R,8aS)-5,5-dimethyloctahydroindolizin-7-yl)amino)-5-fluoropyrimidin-2-yl)amino)-2-fluorophenoxy)ethan-1-ol], under “Homo sapiens, T-cell, 24 h”, the EC50 lay within 500 to 1000 nM.

`CC1C(Nc2nc(Nc3cc(OC(F)F)c(C4CC4)cc3F)ncc2F)CC(C)(C)N2CCCC12` (stereo not shown) [Compound 75] returned an EC50 of 100 to 500 nM.

For the compound `Cc1ccc(Nc2ncc(F)c(N[C@@H]3C[C@@H]4CCCN4C(C)(C)C3)n2)cc1-n1nn[nH]c1=O` [Compound 272, 1-(5-(4-((7R,8aS)-octahydro-5,5-dimethylindolizin-7-ylamino)-5-fluoropyrimidin-2-ylamino)-2-methylphenyl)-1H-tetrazol-5(4H)-one], the EC50 (Homo sapiens, T-cell, 24 h) is greater than 10000 nM.

As for `Cc1ccc(Nc2ncc(Cl)c(N[C@@H]3C[C@@H]4CCCN4C(C)(C)C3)n2)cc1-n1cnnn1` [Compound 147, 5-chloro-N4-((7R,8aS)-5,5-dimethyloctahydroindolizin-7-yl)-N2-(4-methyl-3-(1H-tetrazol-1-yl)phenyl)pyrimidine-2,4-diamine], where the note is “Homo sapiens, T-cell, 24 h”, the EC50 is less than 100 nM.

In the case of `CC1(C)C[C@H](Nc2nc(Nc3cc(C#N)c(C4CC4)cc3F)ncc2Cl)C[C@@H]2CCCN21` [Compound 181, 5-((5-chloro-4-(((7R,8aS)-5,5-dimethyloctahydroindolizin-7-yl)amino)pyrimidin-2-yl)amino)-2-cyclopropyl-4-fluorobenzonitrile], the EC50 (Homo sapiens, T-cell, 24 h) was 100 to 500 nM.

As for `CNc1nc2cc(Nc3ncc(F)c(N[C@@H]4C[C@@H]5CCCN5C(C)(C)C4)n3)c(F)cc2o1` [Compound 253, N5-(4-((7R,8aS)-octahydro-5,5-dimethylindolizin-7-ylamino)-5-fluoropyrimidin-2-yl)-6-fluoro-N2-methylbenzo[d]oxazole-2,5-diamine], the EC50 (Homo sapiens, T-cell, 24 h) lay in the range of 1000 to 10000 nM.

Turning to `CC1(C)C[C@H](Nc2nc(Nc3cc(S(F)(F)(F)(F)F)ccc3F)ncc2F)C[C@@H]2CCCN21` [Compound 71], the EC50 (Homo sapiens, T-cell, 24 h) lay in the range of 500 to 1000 nM.

In turn, `CC1(C)Oc2ccc(Nc3ncc(F)c(N[C@@H]4C[C@@H]5CCCN5C(C)(C)C4)n3)cc2-n2nnnc21` [Compound 136, N2-(4,4-dimethyl-4H-benzo[b]tetrazolo[1,5-d][1,4]oxazin-8-yl)-N4-((7R,8aS)-5,5-dimethyloctahydroindolizin-7-yl)-5-fluoropyrimidine-2,4-diamine] returned an EC50 (Homo sapiens, T-cell, 24 h) of less than 100 nM.

Regarding `CC1(C)C[C@H](Nc2nc(Nc3cccc(-n4nnn(CCO)c4=O)c3)ncc2F)C[C@@H]2CCCN21` [Compound 267, 1-(3-(4-((7R,8aS)-octahydro-5,5-dimethylindolizin-7-ylamino)-5-fluoropyrimidin-2-ylamino)phenyl)-4-(2-hydroxyethyl)-1H-tetrazol-5(4H)-one], under “Homo sapiens, T-cell, 24 h”, the EC50 fell in the range of 100 to 500 nM.

`CC1(C)CC(Nc2nc(Nc3ccc(O[C@@H]4CCOC4)c(C#N)c3)ncc2F)CC2CCCN21` (mixture of isomers) [Compound 57, 2-((R)-tetrahydrofuran-3-yloxy)-5-(5-fluoro-4-(octahydro-5,5-dimethylindolizin-7-ylamino)pyrimidin-2-ylamino)benzonitrile] gave an EC50 (Homo sapiens, T-cell, 24 h) of 100 to 500 nM.

Compound `CC(C)OC(=O)COc1cc(F)c(Nc2ncc(F)c(N[C@@H]3C[C@@H]4CCCN4C(C)(C)C3)n2)cc1-n1nnn(C)c1=O` [Compound 323, isopropyl 2-(4-(4-((7R,8aS)-octahydro-5,5-dimethylindolizin-7-ylamino)-5-fluoropyrimidin-2-ylamino)-5-fluoro-2-(4,5-dihydro-4-methyl-5-oxotetrazol-1-yl)phenoxy)acetate] registered an EC50 (Homo sapiens, T-cell, 24 h) of 1000 to 10000 nM.

`COc1cc(Nc2ncc(F)c(N[C@@H]3C[C@@H]4CCCN4C(C)(C)C3)n2)cc(-n2nnnc2C)c1` (single isomer, unassigned) [Compound 14, (R/S, S/R, R/R, S/S)-5-fluoro-N4-(octahydro-5,5-dimethylindolizin-7-yl)N2-(3-methoxy-5-(5-methyl-1H-tetrazol-1-yl)phenyl)pyrimidine-2,4-diamine] registered an EC50 of less than 100 nM.

`COc1cc(Nc2ncc(F)c(N[C@@H]3C[C@@H]4CCCN4C(C)(C)C3)n2)cc(OC)c1` [Compound 161, N2-(3,5-dimethoxyphenyl)-N4-((7R,8aS)-5,5-dimethyloctahydroindolizin-7-yl)-5-fluoropyrimidine-2,4-diamine]: where the note is “Homo sapiens, T-cell, 24 h”, the EC50 lay in the range of 500 to 1000 nM.

Compound `CC1(C)CC(Nc2nc(Nc3ccc(O[C@H]4CCOC4)c(C#N)c3)ncc2F)CC2CCCN21` (single isomer, unassigned) [Compound 61] came in with an EC50 of 500 to 1000 nM.

Take `C[C@H](CO)Oc1cc(F)c(Nc2ncc(F)c(N[C@@H]3C[C@@H]4CCCN4C(C)(C)C3)n2)cc1-n1nnn(C)c1=O` [Compound 99]: the EC50 (Homo sapiens, T-cell, 24 h) was less than 100 nM.

Where the note is “Homo sapiens, T-cell, 24 h”, `CC1(C)C[C@H](Nc2nc(Nc3ccc4c(c3)-n3nnnc3C3(CCOCC3)O4)ncc2F)C[C@@H]2CCCN21` [Compound 137, N4-((7R,8aS)-5,5-dimethyloctahydroindolizin-7-yl)-5-fluoro-N2-(2′,3′,5′,6′-tetrahydrospiro[benzo[b]tetrazolo[1,5-d][1,4]oxazine-4,4′-pyran]-8-yl)pyrimidine-2,4-diamine] showed an EC50 of less than 100 nM.

On to `CC(O)COc1ccc(Nc2ncc(F)c(N[C@@H]3C[C@@H]4CCCN4C(C)(C)C3)n2)cc1C#N` (stereo partly drawn) [Compound 201, 5-((4-(((7R,8aS)-5,5-dimethyloctahydroindolizin-7-yl)amino)-5-fluoropyrimidin-2-yl)amino)-2-(2-hydroxypropoxy)benzonitrile], for which, where the note is “Homo sapiens, T-cell, 24 h”, the EC50 was 100 to 500 nM.
